Laboratory results from US20200385371A1 (Propellon Therapeutics Inc., priority 2017, published 2020).

How the values were obtained:
[1] = tested on: MV4-11 cells; assay: Cell proliferation assay (ATPlite); type: cell-based; conditions: Homo sapiens, 120 h; MV4-11 cells, five days; read-out: GI MV411 EC50
Method in brief: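 Cells seeded at 1,000/well in Alpha-MEM with 10% FBS, treated with compound over a 10-point range (top 10 μM) or DMSO. Grown five days at 37° C, 5% CO2; viability by ATPlite luminescence.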

[2] = target: T1, WDR5 (Homo sapiens, UniProt P61964); assay: Surface Plasmon Resonance (SPR) assay; type: binding; set-up: Full length WDR5 with an N-terminal His tag and C-terminal AviTag; His tag (N); made in house; host or cells: E. coli; conditions: read-out: SPR Kd
Method in brief: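 Full-length biotinylated WDR5 (N-His, C-AviTag, E. coli) captured (~3000 RU) on streptavidin SA chip; Biacore T200. HBS-EP pH 7.4 plus 5% DMSO running buffer, 40 μl/min.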

[3] = target: T1, WDR5; assay: Fluorescence Polarization (FP) binding assay
Method in brief: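 Displacement of fluorescein-labelled H3 (1-15) (30 nM, with 0.3 μM WDR5) or 9-Ala-FAM (20 nM, with 0.05 μM WDR5) in 80 mM sodium phosphate pH 6.5, 20 mM KCl, 0.008% Triton X-100. FP read at 485/528 nm (H3) or 480/540 nm (9-Ala-FAM); Kdisp from hyperbolic fit, mean of quadruplicates.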

Row | EC50 [1] | Kd [2] | IC50 [3] | SMILES
1 | 92 nM | 0.64 nM | 11.4 nM | Cc1sc(-c2c(F)cc(N3CCN(C)[C@@H](C)C3)c(NC(=O)c3ccc(F)cc3C(F)(F)F)c2F)nc1C(=O)N1CCCC1 [Example 154, (S)—N-(6-(3,4-dimethylpiperazin-1-yl)-2,4-difluoro-3-(5-methyl-4-(pyrrolidine-1-carbonyl)thiazol-2-yl)phenyl)-4-fluoro-2-(trifluoromethyl)benzamide]
2 | 101 nM | 0.97 nM | 19.7 nM | COc1cc(N2CC=C(c3c(F)cc(N4CCN(C)[C@@H](C)C4)c(NC(=O)c4c[nH]c(=O)cc4C(F)F)c3F)CC2)ncn1 [Example 67, (S)-4-(difluoromethyl)-N-(6-(3,4-dimethylpiperazin-1-yl)-2,4-difluoro-3-(1-(6-methoxypyrimidin-4-yl)-1,2,3,6-tetrahydropyridin-4-yl)phenyl)-6-oxo-1,6-dihydropyridine-3-carboxamide]
3 | 10.3 nM | 1.24 nM | 13.8 nM | C[C@@H]1CN(c2ncc(-c3c(F)cc(N4CCN(C)[C@@H](C)C4)c(NC(=O)c4c[nH]c(=O)cc4C(F)(F)F)c3F)cn2)C[C@@H](C)O1 [Example 85, N-(3-(2-((2R,6R)-2,6-dimethylmorpholino)pyrimidin-5-yl)-6-((S)-3,4-dimethylpiperazin-1-yl)-2,4-difluorophenyl)-6-oxo-4-(trifluoromethyl)-1,6-dihydropyridine-3-carboxamide]
4 | 55.8 nM | 0.87 nM | 11.4 nM | CC(C)OC(=O)N1CC=C(c2c(F)cc(N3C[C@@H](C)N(C)[C@@H](C)C3)c(NC(=O)c3c[nH]c(=O)cc3C(F)(F)F)c2F)C1 [Example 134]
5 | 221 nM | 1.13 nM | 34.8 nM | C[C@@H]1CN(c2cc(F)c(-c3ccc(C(=O)NC(C)(C)CC(C)(C)C)c(F)c3F)c(F)c2NC(=O)c2c[nH]c(=O)cc2C(F)(F)F)C[C@H](C)N1C [Example 27, 6-Oxo-N-(2,2′,3′,6-tetrafluoro-4′-((2,4,4-trimethylpentan-2-yl)carbamoyl)-4-((3S,5R)-3,4,5-trimethylpiperazin-1-yl)-[,1′-biphenyl]-3-yl)-4-(trifluoromethyl)-1,6-dihydropyridine-3-carboxamide]
6 | 2.07 nM | 1.35 nM | 12 nM | C[C@@H]1CN(c2cc(F)c(-c3cnc(N4C[C@H](C)O[C@@H](C)C4)nc3)c(F)c2NC(=O)c2c[nH]c(=O)cc2C(F)F)C[C@H](C)N1C [Example 120, 4-(Difluoromethyl)-N-(3-(2-((2S,6S)-2,6-dimethylmorpholino)pyrimidin-5-yl)-2,4-difluoro-6-((3S,5R)-3,4,5-trimethylpiperazin-1-yl)phenyl)-6-oxo-1,6-dihydropyridine-3-carboxamide]
7 | 97.7 nM | 0.77 nM | 13.1 nM | C[C@H]1CN(c2cc(F)c(C3=CCN(c4ncc(C#N)s4)CC3)c(F)c2NC(=O)c2c[nH]c(=O)cc2C(F)(F)F)CCN1C [Example 98, (S)—N-(3-(1-(5-cyanothiazol-2-yl)-1,2,3,6-tetrahydropyridin-4-yl)-6-(3,4-dimethylpiperazin-1-yl)-2,4-difluorophenyl)-6-oxo-4-(trifluoromethyl)-1,6-dihydropyridine-3-carboxamide]
8 | 18500 nM | 23.6 nM | 85.9 nM | C[C@@H]1CN(c2cc(F)c(-c3cc(C(N)=O)c(F)cc3F)c(F)c2NC(=O)c2c[nH]c(=O)cc2C(F)(F)F)C[C@H](C)N1C [Example 30, N-(5′-carbamoyl-2,2′,4′,6-tetrafluoro-4-((3S,5R)-3,4,5-trimethylpiperazin-1-yl)-[1,1′-biphenyl]-3-yl)-6-oxo-4-(trifluoromethyl)-1,6-dihydropyridine-3-carboxamide]
9 | 208 nM | 5.12 nM | 16.6 nM | C[C@@H]1CN(c2nc(-c3c(F)cc(N4CCN(C)[C@@H](C)C4)c(NC(=O)c4c[nH]c(=O)cc4C(F)(F)F)c3F)cs2)C[C@H](C)O1 [Example 131, N-(3-(2-((2S,6R)-2,6-dimethylmorpholino)thiazol-4-yl)-6-((S)-3,4-dimethylpiperazin-1-yl)-2,4-difluorophenyl)-6-oxo-4-(trifluoromethyl)-1,6-dihydropyridine-3-carboxamide]
10 | 210 nM | 1.25 nM | 14.1 nM | C[C@@H]1CN(c2ncc(-c3c(F)cc(N4CCN(C)[C@@H](C)C4)c(NC(=O)c4cn(C)c(=O)cc4C(F)F)c3F)cn2)C[C@@H](C)O1 [Example 162, 4-(Difluoromethyl)-N-(3-(2-((2R,6R)-2,6-dimethylmorpholino)pyrimidin-5-yl)-6-((S)-3,4-dimethylpiperazin-1-yl)-2,4-difluorophenyl)-1-methyl-6-oxo-1,6-dihydropyridine-3-carboxamide]
11 | 64.4 nM | 1.65 nM | 15.1 nM | C[C@@H]1CN(c2cc(F)c(-c3ccc4c(c3)OCO4)c(F)c2NC(=O)c2c[nH]c(=O)cc2C(F)(F)F)C[C@H](C)N1C [Example 71, N-(3-(benzo[d][1,3]dioxol-5-yl)-2,4-difluoro-6-((3S,5R)-3,4,5-trimethylpiperazin-1-yl)phenyl)-6-oxo-4-(trifluoromethyl)-1,6-dihydropyridine-3-carboxamide]
12 | 83.2 nM | 0.8 nM | 11.8 nM | COc1cnc(N2CC=C(c3c(F)cc(N4CCN(C)[C@@H](C)C4)c(NC(=O)c4c[nH]c(=O)cc4C(F)F)c3F)C2)nc1 [Example 50, (S)-4-(difluoromethyl)-N-(6-(3,4-dimethylpiperazin-1-yl)-2,4-difluoro-3-(1-(5-methoxypyrimidin-2-yl)-2,5-dihydro-1H-pyrrol-3-yl)phenyl)-6-oxo-1,6-dihydropyridine-3-carboxamide]
13 | 1110 nM | 3.9 nM | 22.4 nM | CNC(=O)c1cc(-c2c(F)cc(N3C[C@@H](C)N(C)[C@@H](C)C3)c(NC(=O)c3c[nH]c(=O)cc3C(F)(F)F)c2F)ccc1F [Example 29, 6-Oxo-N-(2,4′,6-trifluoro-3′-(methylcarbamoyl)-4-((3S,5R)-3,4,5-trimethylpiperazin-1-yl)-[1,1′-biphenyl]-3-yl)-4-(trifluoromethyl)-1,6-dihydropyridine-3-carboxamide]
14 | 11.4 nM | 1.53 nM | 12.7 nM | C[C@@H]1CN(c2cc(F)c(C3=CCN(C(=O)OC4(C)CCC4)CC3)c(F)c2NC(=O)c2c[nH]c(=O)cc2C(F)(F)F)C[C@H](C)N1C [Example 144, 1-Methylcyclobutyl 4-(2,6-difluoro-3-(6-oxo-4-(trifluoromethyl)-1,6-dihydropyridine-3-carboxamido)-4-((3S,5R)-3,4,5-trimethylpiperazin-1-yl)phenyl)-5,6-dihydropyridine-1(2H)-carboxylate]
15 | 32.3 nM | 0.83 nM | 15.6 nM | C[C@@H]1CN(c2ccc(-c3c(F)cc(N4CCN(C)[C@@H](C)C4)c(NC(=O)c4c[nH]c(=O)cc4C(F)(F)F)c3F)cn2)C[C@H](C)O1 [Example 170, N-(3-(6-((2S,6R)-2,6-dimethylmorpholino)pyridin-3-yl)-6-((S)-3,4-dimethylpiperazin-1-yl)-2,4-difluorophenyl)-6-oxo-4-(trifluoromethyl)-1,6-dihydropyridine-3-carboxamide]
